The values that follow are results of earlier work, collected in patent publication US8992947B2, “Method for predicting therapeutic effect of chemotherapy on renal cell cancer” (Taiho Pharmaceutical Co., Ltd., priority 2009, dated 2015).

The series deals with renal cell carcinoma. As to conditions: most effective agent in summary of 83 clinical test results.

As for `O=c1[nH]cc(F)c(=O)[nH]1` [5-fluorouracil (5-FU), 5-fluorouracil], the response rate is 13.4%.

With `O=c1[nH]c(=O)n([C@H]2C[C@H](O)[C@@H](CO)O2)cc1F` [floxuridine], the response rate is 13.4%.
